Activity calls are given as the source filed them. No cut-off for these calls is given here.
biological target: Glutamate receptor 2 (Homo sapiens, UniProt P42262); test: Binding affinity of compound was determined against Ionotropic glutamate receptor AMPA 2 using cell membranes prepared from HEK293 cells
Sequence (P42262 whole entry): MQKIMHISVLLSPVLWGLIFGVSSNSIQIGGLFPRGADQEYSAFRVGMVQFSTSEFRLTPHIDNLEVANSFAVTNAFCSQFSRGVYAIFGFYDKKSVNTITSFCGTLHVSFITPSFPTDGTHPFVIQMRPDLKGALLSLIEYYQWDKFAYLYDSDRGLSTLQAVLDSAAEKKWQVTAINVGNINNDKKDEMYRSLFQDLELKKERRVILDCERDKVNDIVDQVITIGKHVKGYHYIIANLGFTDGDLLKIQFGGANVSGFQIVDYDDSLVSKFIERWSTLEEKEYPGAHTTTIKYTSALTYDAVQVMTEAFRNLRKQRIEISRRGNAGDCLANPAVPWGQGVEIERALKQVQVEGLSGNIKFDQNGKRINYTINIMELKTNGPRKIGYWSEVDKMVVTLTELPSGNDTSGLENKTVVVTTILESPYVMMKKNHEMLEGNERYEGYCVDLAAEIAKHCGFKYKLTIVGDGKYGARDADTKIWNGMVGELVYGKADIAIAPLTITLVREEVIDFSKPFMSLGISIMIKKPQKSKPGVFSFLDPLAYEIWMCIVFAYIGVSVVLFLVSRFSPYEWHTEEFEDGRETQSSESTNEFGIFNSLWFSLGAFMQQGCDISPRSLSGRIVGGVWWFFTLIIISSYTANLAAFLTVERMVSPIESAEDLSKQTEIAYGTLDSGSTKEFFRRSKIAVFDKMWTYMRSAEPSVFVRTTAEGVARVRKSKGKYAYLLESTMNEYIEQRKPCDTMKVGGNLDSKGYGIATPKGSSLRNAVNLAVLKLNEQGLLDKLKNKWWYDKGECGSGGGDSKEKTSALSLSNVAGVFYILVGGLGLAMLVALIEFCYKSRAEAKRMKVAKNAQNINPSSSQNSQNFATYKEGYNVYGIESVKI

SMILES	Ki [µM]
CC(C)/C=C(\C[C@H](N)C(=O)O)C(=O)O	3.7
N[C@@H](CC(C(=O)O)=C1CCCC1)C(=O)O	3.68

Continued, values first:

Ki [µM]	SMILES
281	CCC(CC)=C(C[C@H](N)C(=O)O)C(=O)O
44.9	CC(C)/C=C(/C[C@H](N)C(=O)O)C(=O)O
> 10	N[C@@H](C[C@@H](C/C=C/c1ccc2ccccc2c1)C(=O)O)C(=O)O

biological target: T1, Glutamate receptor ionotropic, kainate 5 (Homo sapiens, UniProt Q16478); test: Binding affinity of compound was determined against KA2 using cell membranes prepared from HEK293 cells
T1 sequence (Q16478 whole entry): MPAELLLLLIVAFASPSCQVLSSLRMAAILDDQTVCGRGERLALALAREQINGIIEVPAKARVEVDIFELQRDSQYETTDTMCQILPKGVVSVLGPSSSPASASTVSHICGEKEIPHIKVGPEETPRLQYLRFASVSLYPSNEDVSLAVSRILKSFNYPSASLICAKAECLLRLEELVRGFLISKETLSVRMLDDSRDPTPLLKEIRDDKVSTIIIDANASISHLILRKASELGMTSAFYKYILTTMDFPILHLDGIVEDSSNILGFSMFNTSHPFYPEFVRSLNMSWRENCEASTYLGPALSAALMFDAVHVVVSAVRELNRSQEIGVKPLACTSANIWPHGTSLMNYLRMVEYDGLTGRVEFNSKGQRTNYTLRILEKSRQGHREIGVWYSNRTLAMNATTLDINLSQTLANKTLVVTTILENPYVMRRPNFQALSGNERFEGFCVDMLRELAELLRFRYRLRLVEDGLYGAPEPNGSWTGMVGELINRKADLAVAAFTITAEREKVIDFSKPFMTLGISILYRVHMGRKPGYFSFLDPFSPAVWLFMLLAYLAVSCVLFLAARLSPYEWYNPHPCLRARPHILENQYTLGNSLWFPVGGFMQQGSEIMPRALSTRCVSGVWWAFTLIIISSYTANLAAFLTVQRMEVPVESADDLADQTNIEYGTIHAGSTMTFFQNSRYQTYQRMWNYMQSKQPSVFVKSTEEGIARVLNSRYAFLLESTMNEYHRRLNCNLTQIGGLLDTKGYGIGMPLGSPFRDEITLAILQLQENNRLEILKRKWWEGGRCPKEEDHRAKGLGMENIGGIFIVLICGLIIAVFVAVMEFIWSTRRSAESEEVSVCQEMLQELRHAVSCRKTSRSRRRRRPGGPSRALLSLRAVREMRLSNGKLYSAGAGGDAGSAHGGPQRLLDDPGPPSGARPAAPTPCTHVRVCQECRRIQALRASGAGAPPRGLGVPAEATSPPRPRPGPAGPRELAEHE

Ki [µM]	SMILES
7.5	CC(C)/C=C(\C[C@H](N)C(=O)O)C(=O)O

biological target: T2, Glutamate receptor ionotropic, kainate 2 (Homo sapiens, UniProt Q13002); test: biochemical
T2 sequence (Q13002 whole entry): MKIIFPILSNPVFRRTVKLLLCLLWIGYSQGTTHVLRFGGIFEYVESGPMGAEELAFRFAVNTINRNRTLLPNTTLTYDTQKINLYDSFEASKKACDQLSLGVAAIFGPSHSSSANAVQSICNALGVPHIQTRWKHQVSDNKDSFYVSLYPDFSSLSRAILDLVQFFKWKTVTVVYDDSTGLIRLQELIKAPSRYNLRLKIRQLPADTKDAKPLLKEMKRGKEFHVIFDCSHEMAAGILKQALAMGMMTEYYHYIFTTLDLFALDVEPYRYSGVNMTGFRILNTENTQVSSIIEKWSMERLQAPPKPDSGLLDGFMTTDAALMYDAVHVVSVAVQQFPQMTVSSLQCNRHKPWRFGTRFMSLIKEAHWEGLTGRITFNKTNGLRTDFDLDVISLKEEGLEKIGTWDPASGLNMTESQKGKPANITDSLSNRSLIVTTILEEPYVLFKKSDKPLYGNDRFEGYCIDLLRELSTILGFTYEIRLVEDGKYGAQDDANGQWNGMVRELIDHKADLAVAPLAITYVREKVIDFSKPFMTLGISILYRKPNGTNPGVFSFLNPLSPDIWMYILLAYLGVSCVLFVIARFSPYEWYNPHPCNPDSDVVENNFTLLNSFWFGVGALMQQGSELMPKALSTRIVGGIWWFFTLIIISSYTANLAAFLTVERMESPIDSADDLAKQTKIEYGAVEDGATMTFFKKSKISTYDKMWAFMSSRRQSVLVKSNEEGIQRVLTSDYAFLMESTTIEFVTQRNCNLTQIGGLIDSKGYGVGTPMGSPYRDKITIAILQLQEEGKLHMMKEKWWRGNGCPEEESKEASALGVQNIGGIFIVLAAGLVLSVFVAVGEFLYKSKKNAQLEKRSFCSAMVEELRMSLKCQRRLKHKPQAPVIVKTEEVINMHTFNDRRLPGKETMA
Description: Binding affinity of compound was determined against Ionotropic glutamate receptor ionotropic kainate 2 using cell membranes prepared from HEK293 cells

SMILES	Ki [µM]
N[C@@H](C/C(=C/CCC(c1ccccc1)c1ccccc1)C(=O)O)C(=O)O	> 10
CC(C)C/C=C(\C[C@H](N)C(=O)O)C(=O)O	634
CC/C=C(/C[C@H](N)C(=O)O)C(=O)O	18
CC(C)(C)/C=C(\C[C@H](N)C(=O)O)C(=O)O	> 100
N[C@@H](C/C(=C\c1ccc(Cl)cc1)C(=O)O)C(=O)O	193
C/C=C/C=C(/C[C@H](N)C(=O)O)C(=O)O	16.3
N[C@@H](C/C(=C\CCc1ccccc1)C(=O)O)C(=O)O	205
CCCC/C=C(/C[C@H](N)C(=O)O)C(=O)O	125
N[C@@H](C/C(=C\C1CCCC1)C(=O)O)C(=O)O	87.6
C=C(C[C@H](N)C(=O)O)C(=O)O	0.45
CC1(C)CCC/C1=C(/C[C@H](N)C(=O)O)C(=O)O	> 100
CC(C)/C=C(\C[C@H](N)C(=O)O)C(=O)O	82.5
N[C@@H](CC(C(=O)O)=C1CCCC1)C(=O)O	> 100
N[C@@H](CC(C(=O)O)=C1CCC1)C(=O)O	> 100

More lines, now with the values ahead:

Ki [µM]	SMILES
57.2	CCC/C=C(/C[C@H](N)C(=O)O)C(=O)O
46.3	CC1(C)CCC/C1=C(\C[C@H](N)C(=O)O)C(=O)O
255	N[C@@H](CC(C(=O)O)=C1CCCCC1)C(=O)O
> 400	CC(C)=C(C[C@H](N)C(=O)O)C(=O)O
> 100	N[C@@H](C/C(=C\C=C\c1ccccc1)C(=O)O)C(=O)O
207	CCC(CC)=C(C[C@H](N)C(=O)O)C(=O)O
> 500	CC(C)/C=C(/C[C@H](N)C(=O)O)C(=O)O
2.5	C/C=C(/C[C@H](N)C(=O)O)C(=O)O
> 100	N[C@@H](C/C(=C\CCC(c1ccccc1)c1ccccc1)C(=O)O)C(=O)O
> 100	N[C@@H](C/C(=C\C1CCCCC1)C(=O)O)C(=O)O

biological target: Glutamate receptor 1 (Homo sapiens, UniProt P42261); test: biochemical
Sequence (P42261 whole entry): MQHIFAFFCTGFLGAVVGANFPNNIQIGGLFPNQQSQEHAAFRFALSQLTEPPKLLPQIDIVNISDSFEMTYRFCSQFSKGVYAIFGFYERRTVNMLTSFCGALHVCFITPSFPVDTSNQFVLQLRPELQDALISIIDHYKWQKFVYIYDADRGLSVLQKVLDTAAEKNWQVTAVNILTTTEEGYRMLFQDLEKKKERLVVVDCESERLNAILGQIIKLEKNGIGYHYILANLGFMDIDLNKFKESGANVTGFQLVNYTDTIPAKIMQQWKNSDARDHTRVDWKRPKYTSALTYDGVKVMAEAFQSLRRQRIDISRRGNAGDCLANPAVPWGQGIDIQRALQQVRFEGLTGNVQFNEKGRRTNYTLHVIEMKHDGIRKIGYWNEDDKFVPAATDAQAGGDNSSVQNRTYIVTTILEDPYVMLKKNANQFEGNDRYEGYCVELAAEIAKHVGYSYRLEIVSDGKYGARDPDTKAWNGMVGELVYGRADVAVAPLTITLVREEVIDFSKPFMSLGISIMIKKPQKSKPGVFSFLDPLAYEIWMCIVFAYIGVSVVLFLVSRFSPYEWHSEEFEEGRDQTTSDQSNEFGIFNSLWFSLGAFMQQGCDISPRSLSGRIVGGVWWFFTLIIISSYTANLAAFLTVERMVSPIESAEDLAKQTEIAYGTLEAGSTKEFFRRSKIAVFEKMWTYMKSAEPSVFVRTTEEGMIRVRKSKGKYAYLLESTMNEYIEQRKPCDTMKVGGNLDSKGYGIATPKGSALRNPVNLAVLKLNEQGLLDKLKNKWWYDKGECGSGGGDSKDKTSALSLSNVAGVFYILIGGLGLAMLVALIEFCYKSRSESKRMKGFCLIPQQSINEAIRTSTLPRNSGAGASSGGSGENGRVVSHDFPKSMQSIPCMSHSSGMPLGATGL
Description: Binding affinity of compound was determined against Ionotropic glutamate receptor AMPA 1 using cell membranes prepared from HEK293 cells

SMILES	Ki [µM]
CC(C)/C=C(\C[C@H](N)C(=O)O)C(=O)O	0.7
N[C@@H](CC(C(=O)O)=C1CCCC1)C(=O)O	1.1

Results, then the compound that gave them:

Ki [µM]	SMILES
> 100	CCC(CC)=C(C[C@H](N)C(=O)O)C(=O)O
113	CC(C)/C=C(/C[C@H](N)C(=O)O)C(=O)O
> 10	N[C@@H](C[C@@H](C/C=C/c1ccc2ccccc2c1)C(=O)O)C(=O)O

biological target: T2, Glutamate receptor ionotropic, kainate 2; test: Agonistic activity of compound on Glutamate receptor 6 using cell membranes prepared from HEK293 cells was expressed as percentage Rmax; ne means no effect; format: functional, cell-based

Rmax	SMILES
inactive	N[C@@H](CC(C(=O)O)=C1CCCC1)C(=O)O

biological target: Glutamate receptor 4 (Homo sapiens, UniProt P48058); test: biochemical
Sequence (P48058 whole entry): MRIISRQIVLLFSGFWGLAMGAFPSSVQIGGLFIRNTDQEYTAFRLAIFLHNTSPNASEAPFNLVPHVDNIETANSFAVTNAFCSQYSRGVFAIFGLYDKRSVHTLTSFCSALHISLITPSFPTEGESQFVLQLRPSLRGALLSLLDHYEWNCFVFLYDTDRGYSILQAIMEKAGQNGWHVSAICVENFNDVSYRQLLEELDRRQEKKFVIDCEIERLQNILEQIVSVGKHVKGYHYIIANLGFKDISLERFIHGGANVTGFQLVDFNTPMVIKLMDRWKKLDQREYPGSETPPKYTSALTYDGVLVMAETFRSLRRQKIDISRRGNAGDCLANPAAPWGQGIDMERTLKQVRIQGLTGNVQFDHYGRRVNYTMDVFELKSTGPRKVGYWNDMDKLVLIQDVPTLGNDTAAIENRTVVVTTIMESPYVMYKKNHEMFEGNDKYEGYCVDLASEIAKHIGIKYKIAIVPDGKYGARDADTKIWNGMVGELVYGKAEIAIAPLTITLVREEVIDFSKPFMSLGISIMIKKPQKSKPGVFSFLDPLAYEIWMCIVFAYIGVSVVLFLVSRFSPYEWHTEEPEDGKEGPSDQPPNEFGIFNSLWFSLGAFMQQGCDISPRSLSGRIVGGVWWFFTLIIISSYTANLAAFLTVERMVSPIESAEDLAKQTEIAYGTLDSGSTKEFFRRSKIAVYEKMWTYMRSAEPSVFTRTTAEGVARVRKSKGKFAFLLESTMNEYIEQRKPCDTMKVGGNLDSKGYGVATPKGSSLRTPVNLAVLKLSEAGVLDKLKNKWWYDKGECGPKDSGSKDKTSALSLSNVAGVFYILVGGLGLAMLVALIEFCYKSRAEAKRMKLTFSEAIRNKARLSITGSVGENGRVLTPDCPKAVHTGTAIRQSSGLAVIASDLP
Description: Binding affinity of compound was determined against Ionotropic glutamate receptor AMPA 4 using cell membranes prepared from HEK293 cells

SMILES	Ki [µM]
CC(C)/C=C(\C[C@H](N)C(=O)O)C(=O)O	5.6
N[C@@H](CC(C(=O)O)=C1CCCC1)C(=O)O	0.533

The remaining lines, values ahead:

Ki [µM]	SMILES
4.71	CCC(CC)=C(C[C@H](N)C(=O)O)C(=O)O
10.3	CC(C)/C=C(/C[C@H](N)C(=O)O)C(=O)O

biological target: T1, Glutamate receptor ionotropic, kainate 5; test: Binding affinity of compound was determined against Glutamate receptor (KA2) using cell membranes prepared from HEK293 cells

SMILES	Ki [µM]
C=C(C)[C@H]1CN[C@H](C(=O)O)[C@H]1CC(=O)O [KAINIC ACID]	0.08
N[C@@H](CC(C(=O)O)=C1CCCC1)C(=O)O	10

Other lines, results leading:

Ki [µM]	SMILES
21.4	CCC(CC)=C(C[C@H](N)C(=O)O)C(=O)O
82.2	CC(C)/C=C(/C[C@H](N)C(=O)O)C(=O)O

tested on: not listed separately; test: Selectivity of compound was determined as the ratio of Ki of Glutamate receptor 6 to that of Glutamate receptor 5

SMILES	Ratio
N[C@@H](C/C(=C/CCC(c1ccccc1)c1ccccc1)C(=O)O)C(=O)O	10
CC1(C)CCC/C1=C(/C[C@H](N)C(=O)O)C(=O)O	> 424

Second part, the compound after the results:

Ratio	SMILES
12.8	CC1(C)CCC/C1=C(\C[C@H](N)C(=O)O)C(=O)O
49.7	N[C@@H](CC(C(=O)O)=C1CCCCC1)C(=O)O
> 28.8	CC(C)=C(C[C@H](N)C(=O)O)C(=O)O
1.14	C/C=C(/C[C@H](N)C(=O)O)C(=O)O
100	N[C@@H](C/C(=C\CCC(c1ccccc1)c1ccccc1)C(=O)O)C(=O)O
> 16.5	N[C@@H](C/C(=C\C1CCCCC1)C(=O)O)C(=O)O

biological target: T2, Glutamate receptor ionotropic, kainate 2; test: Compound was tested for agonistic activity at Glutamate receptor 6 using HEK293 cells; format: functional, cell-based

EC50 [µM]	SMILES
> 300	CC/C=C(/C[C@H](N)C(=O)O)C(=O)O
> 100	N[C@@H](CC(C(=O)O)=C1CCCC1)C(=O)O

biological target: Glutamate receptor ionotropic, kainate 1 (Homo sapiens, UniProt P39086); test: biochemical
Sequence (P39086 whole entry): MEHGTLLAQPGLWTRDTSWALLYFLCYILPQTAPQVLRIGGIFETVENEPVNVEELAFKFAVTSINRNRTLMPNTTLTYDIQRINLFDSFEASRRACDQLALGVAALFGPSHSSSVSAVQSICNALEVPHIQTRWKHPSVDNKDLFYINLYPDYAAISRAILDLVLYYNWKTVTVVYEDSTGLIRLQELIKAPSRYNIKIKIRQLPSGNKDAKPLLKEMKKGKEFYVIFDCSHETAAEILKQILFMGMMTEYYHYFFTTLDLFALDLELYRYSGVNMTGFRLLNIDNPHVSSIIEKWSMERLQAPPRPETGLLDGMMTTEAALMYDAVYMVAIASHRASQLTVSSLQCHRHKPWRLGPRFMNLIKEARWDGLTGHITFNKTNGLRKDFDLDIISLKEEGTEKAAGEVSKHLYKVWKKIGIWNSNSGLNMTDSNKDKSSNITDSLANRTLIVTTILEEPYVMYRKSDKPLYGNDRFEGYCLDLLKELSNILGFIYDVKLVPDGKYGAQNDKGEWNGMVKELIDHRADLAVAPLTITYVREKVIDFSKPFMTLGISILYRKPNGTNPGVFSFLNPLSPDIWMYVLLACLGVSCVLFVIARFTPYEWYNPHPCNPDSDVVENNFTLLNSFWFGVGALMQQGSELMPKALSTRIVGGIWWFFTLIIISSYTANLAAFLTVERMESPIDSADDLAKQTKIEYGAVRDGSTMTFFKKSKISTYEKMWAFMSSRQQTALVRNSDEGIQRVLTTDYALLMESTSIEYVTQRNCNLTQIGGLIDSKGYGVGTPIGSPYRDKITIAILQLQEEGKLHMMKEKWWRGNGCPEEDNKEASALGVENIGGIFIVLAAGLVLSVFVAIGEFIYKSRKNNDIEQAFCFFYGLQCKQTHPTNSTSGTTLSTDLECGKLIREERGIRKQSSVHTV
Description: Binding affinity of compound was determined against Ionotropic glutamate receptor ionotropic kainate 1 using cell membranes prepared from HEK293 cells

SMILES	Ki [µM]
N[C@@H](C/C(=C/CCC(c1ccccc1)c1ccccc1)C(=O)O)C(=O)O	> 1
CC1(C)CCC/C1=C(/C[C@H](N)C(=O)O)C(=O)O	0.236

Further lines, results first:

Ki [µM]	SMILES
3.62	CC1(C)CCC/C1=C(\C[C@H](N)C(=O)O)C(=O)O
5.13	N[C@@H](CC(C(=O)O)=C1CCCCC1)C(=O)O
13.9	CC(C)=C(C[C@H](N)C(=O)O)C(=O)O
2.2	C/C=C(/C[C@H](N)C(=O)O)C(=O)O
> 1	N[C@@H](C/C(=C\CCC(c1ccccc1)c1ccccc1)C(=O)O)C(=O)O
6.06	N[C@@H](C/C(=C\C1CCCCC1)C(=O)O)C(=O)O
